Biological target: T1, Sphingomyelin phosphodiesterase (Homo sapiens) (UniProt P17405)
T1 sequence (whole entry): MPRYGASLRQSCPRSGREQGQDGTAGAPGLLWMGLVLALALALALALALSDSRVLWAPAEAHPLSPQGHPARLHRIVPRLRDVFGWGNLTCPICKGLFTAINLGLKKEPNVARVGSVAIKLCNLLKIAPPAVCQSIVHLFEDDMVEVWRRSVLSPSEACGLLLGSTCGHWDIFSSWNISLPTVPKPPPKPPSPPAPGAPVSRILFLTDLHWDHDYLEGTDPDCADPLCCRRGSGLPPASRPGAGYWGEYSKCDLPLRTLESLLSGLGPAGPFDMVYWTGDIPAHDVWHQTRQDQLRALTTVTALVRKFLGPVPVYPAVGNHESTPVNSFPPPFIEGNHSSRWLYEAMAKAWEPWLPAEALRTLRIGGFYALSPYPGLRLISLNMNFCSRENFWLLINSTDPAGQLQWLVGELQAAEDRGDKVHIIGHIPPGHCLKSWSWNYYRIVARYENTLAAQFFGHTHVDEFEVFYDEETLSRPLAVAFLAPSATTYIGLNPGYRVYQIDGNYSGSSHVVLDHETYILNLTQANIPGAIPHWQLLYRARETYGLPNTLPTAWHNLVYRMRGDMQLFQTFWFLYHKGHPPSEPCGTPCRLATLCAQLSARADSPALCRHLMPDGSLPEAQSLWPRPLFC
Assay: Compound was evaluated as a substrate for human placental acidic sphingomyelinase utilizing the usual substrate C14-labeled sphingomyelin.

Structure (SMILES)	Cleavage rate [nM U-1 hr-1]
CCCCCCCCCCCCC/C=C/[C@@H](O)[C@H](COP(=O)([O-])OCC[N+](C)(C)C)NC(=O)CCCCCCCCCCCCCCCCCCC	1.72
CCCCCCCCCCCCC/C=C/[C@@H](O)[C@H](COP(=O)(O)OCC[N+](C)(C)CCNS(=O)(=O)c1cccc2c(N(C)C)cccc12)NC(=O)CCCCCCCCCCCCCCCCCCC	1.32
CCCCCCCCCCCCC/C=C/[C@@H](O)[C@H](COP(=O)(O)OCCCCNS(=O)(=O)c1cccc2c(N(C)C)cccc12)NC(=O)CCCCCNC(=O)CCCC[C@@H]1SC[C@@H]2NC(=O)N[C@@H]21	0.51
CCCCCCCCCCCCC/C=C/[C@@H](O)[C@H](COP(=O)(O)OCCCCCCNc1ccc([N+](=O)[O-])c2nonc12)NC(=O)CCCCCNC(=O)CCCC[C@@H]1SC[C@@H]2NC(=O)N[C@@H]21	0.29

From ChEMBL document CHEMBL1152073, “Synthesis of novel fluorescently labeled sphingomyelin derivatives useful for sphingomyelinase assay” (Bioorg Med Chem Lett, 1997)
